According to patent publication US10472341B2, “Bicyclic tetrahydrothiazepine derivatives useful for the treatment of neoplastic and/or infectious diseases” (APEIRON BIOLOGICS AG, priority 2015, dated 2019):

Experiments:
[1] = system: CD8 T cells & M21 tumor cells; assay: CD8 T cells from M21-prestimulated PBMCs restimulated with M21 tumor cells, with or without PD-1 blockade; format: cell-based, human
Procedure: For experiments investigating effects of PD-1 blockade, PBMCs were preincubated with 1 h UV-irradiated M21 tumor cells (50000 tumor cells per 1 Mill. PBMCs) for 14 days. […] Compounds and anti-PD-1 antibody (Nivolumab) or control antibody without direct effects on CD8 T cells (Ipilimumab) were added where indicated.
[…] Example 107, no antibody (no Ig), anti-PD-1 antibody (Nivolumab) or control antibody without direct effects on CD8 T cells (Ipilimumab) were included where indicated.

[2] = system: aCD3/aCD28-stimulated human CD4+-T-cells; assay: IL-2 production and activation markers in aCD3/aCD28 stimulated isolated human CD4+-T-cells; format: cell-based; conditions: IL-2 production at 3 μM compound
In short: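 CD4+ T cells isolated from buffy-coat PBMCs by microbeads were plated in Xvivo medium (1.5*10^5 cells/well) and stimulated with anti-CD3/28 mAbs plus compound. IL-2 measured by ELISA in supernatants at 24 h or 48 h; CD25 and proliferation by flow cytometry, CD69 at 24 h. Activity classes based on IL-2 at 3 μM compound.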

non-stimulated PBMCs = assay: Non-stimulated PBMCs: cytokine secretion and signs of T-cell activation; format: cell-based, human
Excerpt: This is an important finding for compounds that shall selectively act on T cells which have been activated by presence of antigen from pathogens or tumors, but shall not lead to an unwanted general activation of all T cells of a patient.

[3] = Ex. 107 0.03 μM, with Ipilimumab
[4] = Ex. 107 0.03 μM, with Nivolumab
[5] = Ex. 107 0.1 μM, with Ipilimumab
[6] = Ex. 107 0.3 μM, with Ipilimumab

In the case of `Cl.N[C@H]1CS(=O)(=O)c2cc(F)c(C(=O)N[C@H]3CC3(F)F)cc2N(Cc2ccc(Cl)cc2)C1=O` (single isomer, unassigned) [Example 107], the “enhancement of cytokine production” value ([1]; CD8 T cells in the absence of tumor cells) is reported as “such effect was not detected in the absence of tumor cells”, the “production of IL-2 and IFN-gamma” value ([1]; CD8 T cells restimulated with M21 tumor cells) is reported as “enhanced production of both cytokines specifically upon tumor cell contact” and the “Average Granzyme B” value ([1]; Ex. 107 0.03 μM, no Ig) is reported as 1.971 ng/mL. For the same molecule, the “Average IFN-g” value ([1]; Ex. 107 0.03 μM, no Ig) was 0.059 ng/mL, the “Average IL-2” value ([1]; Ex. 107 0.03 μM, no Ig) was 0.048 ng/mL and the “Average Number of living M21 tumor cells” value ([1]; Ex. 107 0.03 μM, no Ig) was 16433. The “Average Granzyme B” value [1, 3] was 1.639 ng/mL, the “Average IFN-g” value [1, 3] was 0.057 ng/mL and the “Average IL-2” value [1, 3] was 0.041 ng/mL. The “Average Number of living M21 tumor cells” value [1, 3] was 21424, the “Average Granzyme B” value [1, 4] was 5.522 ng/mL and the “Average IFN-g” value [1, 4] was 0.772 ng/mL. The “Average IL-2” value [1, 4] was 0.105 ng/mL, the “Average Number of living M21 tumor cells” value [1, 4] was 5574 and the “Average Granzyme B” value ([1]; Ex. 107 0.1 μM, no Ig) was 3.645 ng/mL. The “Average IFN-g” value ([1]; Ex. 107 0.1 μM, no Ig) was 0.313 ng/mL, the “Average IL-2” value ([1]; Ex. 107 0.1 μM, no Ig) was 0.106 ng/mL and the “Average Number of living M21 tumor cells” value ([1]; Ex. 107 0.1 μM, no Ig) was 9029. For the same molecule, the “Average Granzyme B” value [1, 5] was 3.905 ng/mL, the “Average IFN-g” value [1, 5] was 0.363 ng/mL and the “Average IL-2” value [1, 5] was 0.100 ng/mL. For the same molecule, the “Average Number of living M21 tumor cells” value [1, 5] was 10688, the “Average Granzyme B” value ([1]; Ex. 107 0.1 μM, with Nivolumab) was 9.246 ng/mL and the “Average IFN-g” value ([1]; Ex. 107 0.1 μM, with Nivolumab) was 2.282 ng/mL. The “Average IL-2” value ([1]; Ex. 107 0.1 μM, with Nivolumab) was 0.258 ng/mL, the “Average Number of living M21 tumor cells” value ([1]; Ex. 107 0.1 μM, with Nivolumab) was 3361 and the “Average Granzyme B” value ([1]; Ex. 107 0.3 μM, no Ig) was 5.469 ng/mL. The “Average IFN-g” value ([1]; Ex. 107 0.3 μM, no Ig) was 1.114 ng/mL, the “Average IL-2” value ([1]; Ex. 107 0.3 μM, no Ig) was 0.259 ng/mL and the “Average Number of living M21 tumor cells” value ([1]; Ex. 107 0.3 μM, no Ig) was 3822. For the same molecule, the “Average Granzyme B” value [1, 6] was 6.001 ng/mL, the “Average IFN-g” value [1, 6] was 1.098 ng/mL and the “Average IL-2” value [1, 6] was 0.222 ng/mL. For the same molecule, the “Average Number of living M21 tumor cells” value [1, 6] was 4339, the “Average Granzyme B” value ([1]; Ex. 107 0.3 μM, with Nivolumab) was 12.040 ng/mL and the “Average IFN-g” value ([1]; Ex. 107 0.3 μM, with Nivolumab) was 4.565 ng/mL. For the same molecule, the “Average IL-2” value ([1]; Ex. 107 0.3 μM, with Nivolumab) was 0.590 ng/mL, the “Average Number of living M21 tumor cells” value ([1]; Ex. 107 0.3 μM, with Nivolumab) was 1648 and the “Average Granzyme B” value ([1]; Ex. 107 1 μM, no Ig) was 7.246 ng/mL. For the same molecule, the “Average IFN-g” value ([1]; Ex. 107 1 μM, no Ig) was 1.963 ng/mL, the “Average IL-2” value ([1]; Ex. 107 1 μM, no Ig) was 0.389 ng/mL and the “Average Number of living M21 tumor cells” value ([1]; Ex. 107 1 μM, no Ig) was 2642. For the same molecule, the “Average Granzyme B” value ([1]; Ex. 107 1 μM, with Ipilimumab) was 7.906 ng/mL, the “Average IFN-g” value ([1]; Ex. 107 1 μM, with Ipilimumab) was 2.350 ng/mL and the “Average IL-2” value ([1]; Ex. 107 1 μM, with Ipilimumab) was 0.478 ng/mL. The “Average Number of living M21 tumor cells” value ([1]; Ex. 107 1 μM, with Ipilimumab) was 2104, the “Average Granzyme B” value ([1]; Ex. 107 1 μM, with Nivolumab) was 12.985 ng/mL and the “Average IFN-g” value ([1]; Ex. 107 1 μM, with Nivolumab) was 5.846 ng/mL. For the same molecule, the “Average IL-2” value ([1]; Ex. 107 1 μM, with Nivolumab) was 0.954 ng/mL, the “Average Number of living M21 tumor cells” value ([1]; Ex. 107 1 μM, with Nivolumab) was 1574 and the “Average Granzyme B” value ([1]; Ex. 107 3 μM, no Ig) was 8.208 ng/mL. The “Average IFN-g” value ([1]; Ex. 107 3 μM, no Ig) was 2.469 ng/mL, the “Average IL-2” value ([1]; Ex. 107 3 μM, no Ig) was 0.523 ng/mL and the “Average Number of living M21 tumor cells” value ([1]; Ex. 107 3 μM, no Ig) was 2075. For the same molecule, the “Average Granzyme B” value ([1]; Ex. 107 3 μM, with Ipilimumab) was 9.283 ng/mL, the “Average IFN-g” value ([1]; Ex. 107 3 μM, with Ipilimumab) was 2.745 ng/mL and the “Average IL-2” value ([1]; Ex. 107 3 μM, with Ipilimumab) was 0.555 ng/mL. The “Average Number of living M21 tumor cells” value ([1]; Ex. 107 3 μM, with Ipilimumab) was 2083, the “Average Granzyme B” value ([1]; Ex. 107 3 μM, with Nivolumab) was 14.403 ng/mL and the “Average IFN-g” value ([1]; Ex. 107 3 μM, with Nivolumab) was 6.041 ng/mL. The “Average IL-2” value ([1]; Ex. 107 3 μM, with Nivolumab) was 1.285 ng/mL, the “Average Number of living M21 tumor cells” value ([1]; Ex. 107 3 μM, with Nivolumab) was 1429 and the “Average Granzyme B” value ([1]; Ex. 107 10 μM, no Ig) was 8.378 ng/mL. The “Average IFN-g” value ([1]; Ex. 107 10 μM, no Ig) was 3.113 ng/mL, the “Average IL-2” value ([1]; Ex. 107 10 μM, no Ig) was 0.643 ng/mL and the “Average Number of living M21 tumor cells” value ([1]; Ex. 107 10 μM, no Ig) was 2000. For the same molecule, the “Average Granzyme B” value ([1]; Ex. 107 10 μM, with Ipilimumab) was 8.227 ng/mL, the “Average IFN-g” value ([1]; Ex. 107 10 μM, with Ipilimumab) was 3.171 ng/mL and the “Average IL-2” value ([1]; Ex. 107 10 μM, with Ipilimumab) was 0.669 ng/mL. The “Average Number of living M21 tumor cells” value ([1]; Ex. 107 10 μM, with Ipilimumab) was 2033, the “Average Granzyme B” value ([1]; Ex. 107 10 μM, with Nivolumab) was 13.079 ng/mL and the “Average IFN-g” value ([1]; Ex. 107 10 μM, with Nivolumab) was 6.729 ng/mL. For the same molecule, the “Average IL-2” value ([1]; Ex. 107 10 μM, with Nivolumab) was 1.596 ng/mL, the “Average Number of living M21 tumor cells” value ([1]; Ex. 107 10 μM, with Nivolumab) was 1799 and the “reduction of viable tumor cells” value ([1]; example 107 in the presence of Nivolumab) was “even more pronounced and reached with lower compound concentrations in the presence of Nivolumab”. The “enhancement of cytokine production” value ([1]; example 107 together with anti-PD-1 antibody (Nivolumab), CD8 T cells & M21) was “the enhancement of cytokine production was synergistic, i.e. more than additive”, the “granzyme release upon tumor-cell contact” value ([1]; example 107 with PD-1 blockade, CD8 T cells & M21) was “mediated an synergistic enhancement of the cytotoxic effector granzyme release upon tumor-cell contact” and the viable tumor cells ([1]; immune cell cocultures with M21 tumor cells) was “strong reduction of viable tumor cells”. The “Activity Class CD4+” value [2] was “A (IL-2 production at 3 μM compound concentration >10 ng/mL)” and the “cytokine secretion or other signs of T-cell activation” value (non-stimulated PBMCs) was “did not enhance cytokine secretion or other signs of T-cell activation”.
